Molecular target: Coagulation factor XI (Homo sapiens, UniProt P03951)
Assay: FXIa inhibitor IC50 values, dose response, biochemical, hits from 1536-well screen (AID 846)
Conditions: pH 7.4; 23 °C

Chain of Coagulation factor XI (P03951 19-387 limits assumed): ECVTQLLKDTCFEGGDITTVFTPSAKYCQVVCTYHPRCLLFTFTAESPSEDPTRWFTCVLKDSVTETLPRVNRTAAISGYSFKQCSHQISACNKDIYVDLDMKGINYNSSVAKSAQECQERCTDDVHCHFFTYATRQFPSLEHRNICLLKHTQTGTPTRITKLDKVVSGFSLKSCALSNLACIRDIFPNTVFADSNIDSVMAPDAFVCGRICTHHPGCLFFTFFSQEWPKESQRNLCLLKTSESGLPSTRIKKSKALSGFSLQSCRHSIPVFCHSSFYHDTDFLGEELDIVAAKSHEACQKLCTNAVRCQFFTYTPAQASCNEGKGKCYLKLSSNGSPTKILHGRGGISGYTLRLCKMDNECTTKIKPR
Chain of Coagulation factor XI (P03951 388-625 limits assumed): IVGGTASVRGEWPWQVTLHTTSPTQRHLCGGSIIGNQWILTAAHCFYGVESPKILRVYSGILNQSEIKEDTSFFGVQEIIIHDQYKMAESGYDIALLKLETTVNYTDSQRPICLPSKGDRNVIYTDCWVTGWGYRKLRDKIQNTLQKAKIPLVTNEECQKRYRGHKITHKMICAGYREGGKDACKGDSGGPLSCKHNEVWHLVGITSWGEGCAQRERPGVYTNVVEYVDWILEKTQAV

Row | IC50 [µM] | SMILES
1 | > 50 | CC(C)c1csc(CN2CCCC(CCC(=O)NCc3ccccc3F)C2)n1 (configuration not stated) [N-[(2-fluorophenyl)methyl]-3-[1-[(4-propan-2-yl-1,3-thiazol-2-yl)methyl]piperidin-3-yl]propanamide]
2 | > 50 | NS(=O)(=O)c1ccc(Cl)cc1[N+](=O)[O-]
3 | > 50 | O=C(O)CCCC(=O)N1N=C(c2ccccc2)CC1c1cccs1 (configuration not stated) [SMR000414955]
4 | > 50 | COC(=O)c1cccc(NC(=O)CSc2nnc[nH]2)c1 [methyl 3-{[(4H-1,2,4-triazol-3-ylthio)acetyl]amino}benzoate]
5 | > 50 | C=CCNC(=S)N[N-][CH+]c1ccc(C)c([N+](=O)[O-])c1 [SMR000228955]
6 | > 50 | CN(C)c1ccc(C(=S)N2CCN(c3ccc([N+](=O)[O-])cc3)CC2)cc1 [MLS001033622]
7 | > 50 | COc1cc(C2SCC(=O)N2c2c(C)n(C)n(-c3ccccc3)c2=O)ccc1O (configuration not stated) [SMR000414946]
8 | > 50 | C=CCNc1nc(NC(C)(C)CO)nc(OC)n1 [SMR000117555]
9 | > 50 | CCOC(=O)c1ccc(NC(=O)Nc2cccc(C)n2)cc1 [MLS000679527]
10 | > 50 | Cc1cccc(OCC(O)CN2CC3(C)CC2CC(C)(C)C3)c1 (configuration not stated) [SMR000249047]
11 | > 50 | CN1CCN(S(=O)(=O)Cc2ccc(Cl)cc2)CC1 [SMR000456888]
12 | > 50 | C/C=C(\C)C(=O)OC1c2c(ccc3ccc(=O)oc23)OC(C)(C)C1OC(C)=O (configuration not stated) [MLS000121833]
13 | > 50 | COc1ccc(S(=O)(=O)NCc2c(-c3ccccc3)noc2C)c(OC)c1
14 | > 50 | CC1=CC(=NNC(=S)Nc2cccnc2)CC(C)(C)C1 [SMR000385739]
15 | > 50 | Cc1cc(F)ccc1S(=O)(=O)Nc1ncnc2sc3c(c12)CCC3 [N-(7,8-dihydro-6H-cyclopenta[4,5]thieno[1,2-c]pyrimidin-1-yl)-4-fluoro-2-methylbenzenesulfonamide]
16 | > 50 | NC(=O)NOCc1ccccc1 [phenylmethoxyurea]
17 | > 50 | COc1ccc(C=Nn2c(C)cc(C)cc2=O)cc1 [SMR000269659]
18 | > 50 | Cc1nn(C)c(C)c1C=C(C(=O)C(C)C)n1cncn1 [SMR000427822]
19 | > 50 | Cc1cc(C(=O)Cn2nc(C(=O)O)c3ccccc3c2=O)c(C)n1-c1cccc(C(F)(F)F)c1
20 | > 50 | CCOC(=O)Cc1csc(NC(=O)c2sc3nc4ccc(CC)cc4cc3c2N)n1 [MLS000556627]
21 | > 50 | COc1ccc(-c2n[nH]cc2C2N=C(N)Nc3nc4ccccc4n32)cc1 (configuration not stated)
22 | > 50 | CC(=O)c1ccc(NC(=O)C(Cl)=Cc2ccccc2)cc1 [(Z)-N-(4-acetylphenyl)-2-chloro-3-phenyl-2-propenamide]
23 | 7.75 | COc1ccccc1/N=C/c1nc(-c2ccccc2)oc1OC(C)=O [SMR000039734]
24 | 1.01 | Cc1cc(C)c(S(=O)(=O)ON2C(=O)c3ccccc3C2=O)cc1C [MLS000577081]

Row | IC50 [µM] | SMILES
25 | > 50 | Cc1cccc(OCC(=O)NN=Cc2ccccc2C(=O)O)c1 [SMR000372421]
26 | > 50 | COc1cccc(C(=O)OCCN2CCOCC2)c1
27 | > 50 | CC(Cc1ccccc1)=NNC(=O)CNC(=O)c1ccccc1Cl [2-chloro-N-[2-oxo-2-[2-(1-phenylpropan-2-ylidene)hydrazinyl]ethyl]benzamide]
28 | > 50 | Cc1onc(-c2ccccc2)c1C(=O)N(Cc1ccco1)Cc1cccs1 [MLS000771400]
29 | > 50 | Oc1cc(N2CCC(c3nc4ccccc4o3)CC2)c(O)n1-c1ccc(Cl)c(C(F)(F)F)c1 [3-[4-(1,3-benzoxazol-2-yl)piperidin-1-yl]-1-[4-chloranyl-3-(trifluoromethyl)phenyl]pyrrolidine-2,5-dione]
30 | 1.4 | O=C1c2ccccc2C(=O)N1OS(=O)(=O)c1ccccc1 [Benzenesulfonic acid 1,3-dioxo-1,3-dihydro-isoindol-2-yl ester]
31 | > 50 | N#C/C(=C\c1cccnc1)c1nc2ccccc2[nH]1 [(E)-2-(1H-Benzoimidazol-2-yl)-3-pyridin-3-yl-acrylonitrile]
32 | 3.46 | Cc1ccc(C(=O)ON=C2CCS(=O)(=O)c3sccc32)cc1 [[[7,7-bis(oxidanylidene)-5,6-dihydrothieno[2,3-b]thiopyran-4-ylidene]amino] 4-methylbenzoate]
33 | > 50 | Clc1ccccc1Cn1nnc2c(NCCN3CCOCC3)ncnc21 [3-[(2-chlorophenyl)methyl]-N-(2-morpholin-4-ylethyl)triazolo[4,5-d]pyrimidin-7-amine]
34 | > 50 | O=C(NN=Cc1ccccc1C(=O)O)c1ccccc1Br [MLS000774668]
35 | > 50 | Cc1ccc(NC2=NC3(CCCCC3)N=C(N)N2)c(C)c1 [N4-(2,4-dimethylphenyl)-1,3,5-triazaspiro[5.5]undeca-1,4-diene-2,4-diamine]
36 | 5.6 | O=C(Oc1ccc(=O)n(-c2ccccc2)n1)c1ccc(Cl)cc1 [4-chlorobenzoic acid (6-oxo-1-phenyl-3-pyridazinyl) ester]
37 | > 50 | CCOc1cc(CO)ccc1OCC(=O)N1CCCCC1 [2-[2-ethoxy-4-(hydroxymethyl)phenoxy]-1-(1-piperidinyl)ethanone]
38 | > 50 | COc1ccc(C=NNC(=O)CCn2cnc3ccccc32)cc1 [MLS000769034]
39 | > 50 | Cc1ccccc1C(=O)NC1CCSC1=O (configuration not stated) [MLS000709097]
40 | > 50 | COc1cc(C(=O)NC(=S)N(C)Cc2ccccc2)cc(OC)c1OC [N-[benzyl(methyl)carbamothioyl]-3,4,5-trimethoxybenzamide]
41 | > 50 | Cc1nc2ccccc2c(=O)n1NC(=O)c1cc(Br)ccc1Cl
42 | 21.6 | Cn1cccc1C(=O)Nc1nc(-c2ccccn2)cs1 [SMR000064459]
43 | > 50 | COCCNCC(=O)Nc1nc(C)cs1 [SMR000287473]
44 | > 50 | NS(=O)(=O)c1ccc(CCNC(=O)Cc2ccccc2[N+](=O)[O-])cc1 [MLS000689902]
45 | > 50 | Cc1nn(CC(=O)c2ccc(Cl)s2)c(C)c1[N+](=O)[O-] [MLS001006606]
46 | > 50 | CCN(C(=O)COC(=O)/C=C/c1c(C)nn(-c2ccccc2)c1C)C1CCS(=O)(=O)C1 (configuration not stated) [(E)-3-(3,5-dimethyl-1-phenyl-4-pyrazolyl)-2-propenoic acid [2-[(1,1-dioxo-3-thiolanyl)-ethylamino]-2-oxoethyl] ester]
47 | > 50 | COc1ccc([N+](=O)[O-])cc1NCc1ccco1 [N-(2-furanylmethyl)-2-methoxy-5-nitroaniline]
48 | > 50 | Oc1ccc(CN=Nc2nc(-c3cccnc3)nc3ccccc23)c(O)c1 [(4E)-3-hydroxy-4-[[2-(2-pyridin-3-ylquinazolin-4-yl)hydrazinyl]methylidene]cyclohexa-2,5-dien-1-one]

Row | IC50 [µM] | SMILES
49 | > 50 | CCc1cc(-c2n[nH]cc2-c2nc3ccccc3n2C)c(O)cc1O [4-Ethyl-6-[4-(1-methyl-1H-benzoimidazol-2-yl)-1H-pyrazol-3-yl]-benzene-1,3-diol]
50 | > 50 | C=CCn1c(Cc2cccs2)nnc1SCC(=O)NCc1ccco1 [SMR000153108]
51 | > 50 | Cc1cccc(NC(=O)c2cc(-n3c(O)ccc3O)ccc2Cl)n1
52 | 3.2 | Cc1cc(C)c(C)c(S(=O)(=O)ON2C(=O)c3ccccc3C2=O)c1C [2-{[(2,3,5,6-tetramethylphenyl)sulfonyl]oxy}-1H-isoindole-1,3(2H)-dione]
53 | 1.08 | Cc1ccc(S(=O)(=O)ON2C(=O)c3ccccc3C2=O)c(C)c1 [MLS000579570]
54 | > 50 | O=C(Nc1nc(-c2ccccc2)cs1)c1ccc(S(=O)(=O)N2CCc3ccccc32)cc1 [SMR000235796]
55 | > 50 | COc1cccc(C=NNC(=O)c2[nH]c(C)c(C(=O)NN=Cc3cccc(OC)c3O)c2C)c1O [SMR000162187]
56 | > 50 | CNC(=S)N1CCC(NC(=O)c2ccco2)CC1 [N-[1-(methylcarbamothioyl)piperidin-4-yl]furan-2-carboxamide]
57 | > 50 | CC(C)N(Cc1ccccc1)C(S)=NC1CCCCC1 [MLS001033857]
58 | > 50 | COc1ccccc1CC(=O)NCc1csc(-c2cccs2)n1 [MLS000859819]
59 | > 50 | CC(C)CNC(=O)Nc1ccc(F)c(Cl)c1 [MLS000679438]
60 | > 50 | COc1ccc(CSc2nc(C)cc(C)c2S(C)(=O)=O)cc1 [2-[(4-methoxybenzyl)sulfanyl]-4,6-dimethyl-3-pyridinyl methyl sulfone]
61 | 41.3 | COc1ccc2c(c1)-c1nc(NC(=O)c3cccs3)sc1CC2 [N-(8-methoxy-4,5-dihydrobenzo[e][1,3]benzothiazol-2-yl)-2-thiophenecarboxamide]
62 | 17.3 | O=C(Nc1nc(-c2cccs2)cs1)c1ccc(Cl)cc1 [4-chloro-N-(4-thiophen-2-yl-2-thiazolyl)benzamide]
63 | > 50 | CC(=O)Nc1ccc(S(=O)(=O)NNC(=O)COc2ccc(Cl)cc2Cl)cc1 [MLS000777409]
64 | 0.741 | O=C(Oc1cncc(Cl)c1)c1ccco1
65 | > 50 | COc1cc(C(=O)NCC(=O)OCn2nnc3ccccc3c2=O)cc(OC)c1OC [MLS001007360]
66 | > 50 | COc1ccc(N2C(=O)C(Cl)=C(N3CCCC(C)C3)C2=O)cc1 (configuration not stated) [SMR000142424]
67 | > 50 | CCOc1ccc(NC(=O)CN2C(=O)/C(=C3\SC(=S)N(C4CCS(=O)(=O)C4)C3=O)c3ccccc32)cc1 (configuration not stated) [2-[(3Z)-3-[3-[1,1-bis(oxidanylidene)thiolan-3-yl]-4-oxidanylidene-2-sulfanylidene-1,3-thiazolidin-5-ylidene]-2-oxidanylidene-indol-1-yl]-N-(4-ethoxyphenyl)ethanamide;ethanoic acid]
68 | 1.71 | O=C(Oc1ccc(=O)n(-c2ccccc2)n1)c1cccc(Cl)c1 [(6-oxidanylidene-1-phenyl-pyridazin-3-yl) 3-chloranylbenzoate]
69 | > 50 | CC1(C)[N-]c2ccc([N+](=O)[O-])c(N)c2[N+]1=O [MLS001012383]
70 | > 50 | CCc1cc2c(SCC(=O)N(C)C3CCS(=O)(=O)C3)ncnc2s1 (configuration not stated) [N-(1,1-dioxothiolan-3-yl)-2-(6-ethylthieno[2,3-d]pyrimidin-4-yl)sulfanyl-N-methylacetamide]
71 | 2.22 | CSc1nc2cc3c(cc2n1C(=O)c1ccc(C)cc1)OCCO3 [MLS000544330]

Row | SMILES | IC50 [µM]
72 | NC[C@H](O)c1ccc(O)cc1 [SMR000058358] | > 50
